For 14 molecules, AC50 results are on record in patent US10654828B2 (NOVARTIS AG, priority 2017, dated 2020).

The subject of assay [1] is FoxO3a. Kind of assay: FoxO3a inhibition: GFP-FoxO3a nuclear to cytoplasmic translocation reporter assay. The assay is classed as cell-based. The following applies: Homo sapiens, U2OS, 0.5 h, U2OS GFP-FoxO3a H212R cells, serum starved overnight, compound 30 minutes; ratio of nuclear to cytosolic GFP intensity; DMSO control 0%; read-out: FoxO AC50. In a few lines: (§1)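 Serum-starved U2OS cells expressing GFP-FoxO3a H212R treated with compounds 30 min, fixed, imaged. FoxO3a: nuclear/cytosolic GFP ratio, %. AKT: total cellular phospho-AKT (Ser473) antibody staining intensity, %. DMSO set as 0% activity.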

For assay [2], the system named is AKT. Kind of assay: AKT activation: Phospho-AKT (Ser473) antibody staining in reporter cells. Format: cell-based. The following applies: Homo sapiens, U2OS, 0.5 h, U2OS GFP-FoxO3a H212R cells, serum starved overnight, compound 30 minutes; total cellular intensity of Phospho-AKT (Ser473) staining; DMSO control 0%. In a few lines:
as §1

For `Cc1cc(C(N)=O)nn1-c1ccc2c(ccn2Cc2ccc(-c3ccc(C(C)(C)O)cn3)cc2)c1` [Example 30-2, 1-(1-(4-(5-(2-hydroxypropan-2-yl)pyridin-2-yl)benzyl)-1H-indol-5-yl)-5-methyl-1H-pyrazole-3-carboxamide], the AC50 in assay [1] stood at 0.223 µM; in assay [2], 0.32 µM.
As for `Cc1cc(C(N)=O)nn1-c1ccc2c(ccn2Cc2ccc(-c3ccc(C(C)(C)O)nc3)cc2)c1` [Example 30-3, 1-(1-(4-(6-(2-hydroxypropan-2-yl)pyridin-3-yl)benzyl)-1H-indol-5-yl)-5-methyl-1H-pyrazole-3-carboxamide], the AC50 in assay [1] came to 0.126 µM; in assay [2], 0.572 µM.
For `Cc1cc(C(N)=O)nn1-c1ccc2c(ccn2Cc2ccc(CC3CN(C)C3)cc2)c1` [Example 32, 5-methyl-1-(1-(4-((1-methylazetidin-3-yl)methyl)benzyl)-1H-indol-5-yl)-1H-pyrazole-3-carboxamide], the AC50 in assay [1] is 1.04 µM; in assay [2], 4.36 µM.
Regarding `Cc1cc(C(N)=O)nn1-c1ccc2c(ccn2Cc2ccc([C@@]34C[C@@H]3CN(C)C4)cc2)c1` [Example 33, 5-methyl-1-(1-(4-((1R,5S)-3-methyl-3-azabicyclo[3.1.0]hexan-1-yl)benzyl)-1H-indol-5-yl)-1H-pyrazole-3-carboxamide], the values for the AC50 in assay [1] and in assay [2] were 0.383 µM and 2.81 µM, respectively.
With `Cc1cc(C(N)=O)nn1-c1ccc2c(ccn2Cc2ccc(-c3ccc(CN4CCC[C@H]4CO)cc3)cc2)c1` [Example 34-1, (S)-1-(1-((4′-((2-(hydroxymethyl)pyrrolidin-1-yl)methyl)-[1,1′-biphenyl]-4-yl)methyl)-1H-indol-5-yl)-5-methyl-1H-pyrazole-3-carboxamide], the figures for the concentration at half-maximal activity (AC50) in assay [1] and in assay [2] were 0.119 µM and 0.184 µM, respectively.
The matching figures for `Cc1cc(C(N)=O)nn1-c1ccc2c(ccn2Cc2ccc(-c3ccc(CN4CCC[C@@H]4CO)cc3)cc2)c1` [Example 34-2, (R)-1-(1-((4′-((2-(hydroxymethyl)pyrrolidin-1-yl)methyl)-[1,1′-biphenyl]-4-yl)methyl)-1H-indol-5-yl)-5-methyl-1H-pyrazole-3-carboxamide]: 0.042 µM and 0.003 µM.
In the case of `Cc1cc(C(N)=O)nn1-c1ccc2c(ccn2Cc2ccc(-c3ccc(CN4CCN(C)CC4)cc3)cc2)c1` [Example 34-3, 5-methyl-1-(1-((4′-((4-methylpiperazin-1-yl)methyl)-[1,1′-biphenyl]-4-yl)methyl)-1H-indol-5-yl)-1H-pyrazole-3-carboxamide], the AC50 in assay [1] is 0.131 µM; in assay [2] it was 0.266 µM.
With `Cc1cc(C(N)=O)nn1-c1ccc2c(ccn2Cc2ccc(-c3ccc(CN4CCNCC4)cc3)cc2)c1` [Example 35, 5-methyl-1-(1-((4′-(piperazin-1-ylmethyl)-[1,1′-biphenyl]-4-yl)methyl)-1H-indol-5-yl)-1H-pyrazole-3-carboxamide], the AC50 amounted to 0.181 µM in assay [1] and 0.603 µM in assay [2].
As for `Cc1cc(C(N)=O)nn1-c1ccc2c(ccn2Cc2ccc(-c3ccc(C(=O)N4CCN(C)CC4)cc3)cc2)c1` [Example 36, 5-methyl-1-(1-((4′-(4-methylpiperazine-1-carbonyl)-[1,1′-biphenyl]-4-yl)methyl)-1H-indol-5-yl)-1H-pyrazole-3-carboxamide], the results for the AC50 in assay [1] and in assay [2] were 0.049 µM and 0.039 µM, respectively.
In the same order, the values of `Cc1cc(C(N)=O)nn1-c1ccc2c(ccn2Cc2ccc([C@H]3C[C@H]4CNC[C@H]4C3)cc2)c1` [Example 39, 5-methyl-1-(1-(4-((3aR,5r,6aS)-octahydrocyclopenta[c]pyrrol-5-yl)benzyl)-1H-indol-5-yl)-1H-pyrazole-3-carboxamide] are 0.175 µM and 0.907 µM.
Turning to `Cc1cc(C(N)=O)nn1-c1ccc2c(ccn2Cc2ccc([C@@H]3C[C@@H]4CN(CC5CC5)C[C@@H]4C3)cc2)c1` [Example 40, 1-(1-(4-((3aR,5r,6aS)-2-(cyclopropylmethyl)octahydrocyclopenta[c]pyrrol-5-yl)benzyl)-1H-indol-5-yl)-5-methyl-1H-pyrazole-3-carboxamide], the figures for the AC50 in assay [1] and in assay [2] were 0.161 µM and 1.22 µM, respectively.
The matching figures for `Cc1cc(C(N)=O)nn1-c1ccc2c(ccn2Cc2ccc([C@@H]3C[C@@H]4CN(S(C)(=O)=O)C[C@@H]4C3)cc2)c1` [Example 41, 5-methyl-1-(1-(4-((3aR,5r,6aS)-2-(methylsulfonyl)octahydrocyclopenta[c]pyrrol-5-yl)benzyl)-1H-indol-5-yl)-1H-pyrazole-3-carboxamide]: 0.113 µM and 0.304 µM.
Turning to `Cc1cc(C(N)=O)nn1-c1ccc2c(ccn2Cc2ccc([C@@H]3C[C@@H]4CN(CCS(C)(=O)=O)C[C@@H]4C3)cc2)c1` [Example 42, 5-Methyl-1-(1-(4-((3aR,5r,6aS)-2-(2-(methylsulfonyl)ethyl)octahydrocyclopenta[c]pyrrol-5-yl)benzyl)-1H-indol-5-yl)-1H-pyrazole-3-carboxamide], the results for the AC50 in assay [1] and in assay [2] were 0.069 µM and 0.23 µM, respectively.
On to `Cc1cn(Cc2ccc([C@@H]3C[C@@H]4CN(C)C[C@@H]4C3)cc2)c2ccc(-n3nc(C(N)=O)cc3C)cc12` [Example 43, 5-Methyl-1-(3-methyl-1-(4-((3aR,5r,6aS)-2-methyloctahydrocyclopenta[c]pyrrol-5-yl)benzyl)-1H-indol-5-yl)-1H-pyrazole-3-carboxamide], for which the AC50 worked out at 0.215 µM in assay [1] and 0.74 µM in assay [2].
